Assay results published in PubChem BioAssay AID248 (DTP/NCI, 2004).
“And” between values parts separate entries of the source, which are not always exact repeats. Equal values may be shown once. Toxic doses and inconclusive results are not listed. No stated cut-off is given here; in the data, active means T/C of 150% or more; inactive means T/C below 125%.

Tested on: L1210 leukemia ip in BDF1 mice, survival T/C
Assay: NCI In Vivo Anticancer Drug Screen. Data for tumor model L1210 Leukemia (intraperitoneal) in B6D2F1 (BDF1) mice
Conditions: endpoint: mean survival time, higher = longer survival
Outline: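 Ratio derived from survival: compound-dosed mice over vehicle-dosed mice, all bearing a transplantable tumor.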

[1] = dose: 100.0 mg/kg/injection, schedule: Q01DX001 (ip), vehicle: saline
[2] = dose: 200.0 mg/kg/injection, schedule: Q01DX001 (ip), vehicle: saline
[3] = dose: 400.0 mg/kg/injection, schedule: Q01DX001 (ip), vehicle: saline
[4] = dose: 100.0 mg/kg/injection, schedule: Q04DX002 (ip), vehicle: Klucel (hydroxypropylcellulose) (HPC)
[5] = dose: 200.0 mg/kg/injection, schedule: Q04DX002 (ip), vehicle: Klucel (hydroxypropylcellulose) (HPC)
[6] = dose: 400.0 mg/kg/injection, schedule: Q04DX002 (ip), vehicle: Klucel (hydroxypropylcellulose) (HPC)
[7] = dose: 100.0 mg/kg/injection, schedule: Q04DX003 (ip), vehicle: Klucel (hydroxypropylcellulose) (HPC)
[8] = dose: 200.0 mg/kg/injection, schedule: Q04DX003 (ip), vehicle: Klucel (hydroxypropylcellulose) (HPC)
[9] = dose: 400.0 mg/kg/injection, schedule: Q04DX003 (ip), vehicle: Klucel (hydroxypropylcellulose) (HPC)
[10] = dose: 100.0 mg/kg/injection, schedule: Q01DX001 (ip), vehicle: Klucel (hydroxypropylcellulose) (HPC)
[11] = dose: 200.0 mg/kg/injection, schedule: Q01DX001 (ip), vehicle: Klucel (hydroxypropylcellulose) (HPC)
[12] = dose: 400.0 mg/kg/injection, schedule: Q01DX001 (ip), vehicle: Klucel (hydroxypropylcellulose) (HPC)
[13] = dose: 100.0 mg/kg/injection, schedule: Q01DX001 (ip), vehicle: carboxymethylcellulose (CMC)
[14] = dose: 100.0 mg/kg/injection, schedule: Q01DX009 (ip), vehicle: carboxymethylcellulose (CMC)
[15] = dose: 200.0 mg/kg/injection, schedule: Q01DX001 (ip), vehicle: carboxymethylcellulose (CMC)
[16] = dose: 200.0 mg/kg/injection, schedule: Q01DX009 (ip), vehicle: carboxymethylcellulose (CMC)

Measured: T/C

COc1ccc(C(=O)N2CCN(C)CC2)cc1OC
inactive: [1] 101 % of control | [2] 101 % of control | [3] 97 % of control

COC1OC2COC(c3ccccc3)OC2C(OC(C)=O)C1OS(=O)(=O)c1ccc(C)cc1 (stereo not drawn)
inactive: [4] 109 % of control | [5] 88 % of control | [6] 109 % of control

O=S(=O)(c1ccccc1)N1CC2C3C=CC(C3)C2C1 (stereo not drawn)
inactive: [7] 93 % of control | [8] 109 % of control | [9] 95 % of control

Cc1ncc(C(O)c2ccccc2)n1Cc1ccccc1 (stereo not drawn)
inactive: [10] 94 % of control | dose: 100.0 mg/kg/injection, schedule: Q01DX009 (ip), vehicle: Klucel (hydroxypropylcellulose) (HPC) 93 % of control and 107 % of control | [7] 106 % of control | [11] 100 % of control | dose: 200.0 mg/kg/injection, schedule: Q01DX009 (ip), vehicle: Klucel (hydroxypropylcellulose) (HPC) 93 % of control and 103 % of control | [8] 97 % of control | [12] 98 % of control | dose: 400.0 mg/kg/injection, schedule: Q01DX009 (ip), vehicle: Klucel (hydroxypropylcellulose) (HPC) 104 % of control and 89 % of control | [9] 99 % of control

CC1CC2(C)C(CC1=O)CC(C)C1C2CCC2(C)C1CCC2(C)O (stereo not drawn)
inactive: dose: 100.0 mg/kg/injection, schedule: Q01DX009 (ip), vehicle: saline with Tween-80 90 % of control | dose: 200.0 mg/kg/injection, schedule: Q01DX009 (ip), vehicle: saline with Tween-80 90 % of control

CSc1ccc(OC(=O)Nc2cccc(Cl)c2)cc1C
inactive: [13] 94 % of control | [14] 98 % of control | [4] 101 % of control | dose: 100.0 mg/kg/injection, schedule: Q04DX002 (ip), vehicle: carboxymethylcellulose (CMC) 96 % of control and 101 % of control | dose: 100.0 mg/kg/injection, schedule: Q04DX003 (ip), vehicle: carboxymethylcellulose (CMC) 101 % of control | [15] 97 % of control | [16] 100 % of control and 106 % of control | [5] 95 % of control | dose: 200.0 mg/kg/injection, schedule: Q04DX002 (ip), vehicle: carboxymethylcellulose (CMC) 95 % of control and 88 % of control | dose: 200.0 mg/kg/injection, schedule: Q04DX003 (ip), vehicle: carboxymethylcellulose (CMC) 94 % of control | dose: 400.0 mg/kg/injection, schedule: Q01DX001 (ip), vehicle: carboxymethylcellulose (CMC) 87 % of control | dose: 400.0 mg/kg/injection, schedule: Q01DX009 (ip), vehicle: carboxymethylcellulose (CMC) 93 % of control and 87 % of control | [6] 108 % of control | dose: 400.0 mg/kg/injection, schedule: Q04DX002 (ip), vehicle: carboxymethylcellulose (CMC) 95 % of control and 103 % of control | dose: 400.0 mg/kg/injection, schedule: Q04DX003 (ip), vehicle: carboxymethylcellulose (CMC) 92 % of control

Cc1cc(C)c(O)c(CN(C)C)c1.[Cu+2]
inactive: dose: 50.0 mg/kg/injection, schedule: Q01DX001 (ip), vehicle: saline 98 % of control | [1] 98 % of control

N#CCC(N)=C(C#N)C#N
inactive: [13] 94 % of control | dose: 100.0 mg/kg/injection, schedule: Q01DX Z (ip), vehicle: carboxymethylcellulose (CMC) 94 % of control | [15] 103 % of control

C=C(Br)CN(C)C(C)=O
inactive: dose: 6.25 mg/kg/injection, schedule: Q01DX009 (ip), vehicle: saline 98 % of control | dose: 6.25 mg/kg/injection, schedule: Q04DX003 (ip), vehicle: saline 101 % of control | dose: 12.5 mg/kg/injection, schedule: Q01DX009 (ip), vehicle: saline 98 % of control | dose: 12.5 mg/kg/injection, schedule: Q04DX003 (ip), vehicle: saline 106 % of control | dose: 25.0 mg/kg/injection, schedule: Q01DX009 (ip), vehicle: saline 93 % of control | dose: 25.0 mg/kg/injection, schedule: Q04DX003 (ip), vehicle: saline 98 % of control

CN=Cc1ccc([N+](=O)[O-])cc1
inactive: dose: 75.0 mg/kg/injection, schedule: Q01DX001 (ip), vehicle: Klucel (hydroxypropylcellulose) (HPC) 91 % of control | dose: 75.0 mg/kg/injection, schedule: Q01DX009 (ip), vehicle: Klucel (hydroxypropylcellulose) (HPC) 96 % of control | dose: 150.0 mg/kg/injection, schedule: Q01DX001 (ip), vehicle: Klucel (hydroxypropylcellulose) (HPC) 91 % of control | dose: 150.0 mg/kg/injection, schedule: Q01DX009 (ip), vehicle: Klucel (hydroxypropylcellulose) (HPC) 105 % of control | dose: 300.0 mg/kg/injection, schedule: Q01DX001 (ip), vehicle: Klucel (hydroxypropylcellulose) (HPC) 96 % of control | dose: 300.0 mg/kg/injection, schedule: Q01DX009 (ip), vehicle: Klucel (hydroxypropylcellulose) (HPC) 95 % of control

CC(C)(C)N(O)C(=O)NC1CCCCC1
inactive: [10] 92 % of control | [11] 91 % of control | [12] 103 % of control

CCC(=O)c1cc(O)ccc1O
inactive: dose: 100.0 mg/kg/injection, schedule: Q04DX003 (ip), vehicle: other 93 % of control | dose: 200.0 mg/kg/injection, schedule: Q04DX003 (ip), vehicle: other 98 % of control

COC(=O)C(Cc1[nH]c(N=Nc2ccc(Br)cc2)nc1N=Nc1ccc(Br)cc1)NC(=O)c1ccccc1 (stereo not drawn)
inactive: dose: 100.0 mg/kg/injection, schedule: Q01DX001 (ip), vehicle: saline with Tween-80 86 % of control | dose: 200.0 mg/kg/injection, schedule: Q01DX001 (ip), vehicle: saline with Tween-80 93 % of control | dose: 400.0 mg/kg/injection, schedule: Q01DX001 (ip), vehicle: saline with Tween-80 90 % of control

CC(=O)Nc1ncnc2c(C3OC(COC(C)=O)C(OC(C)=O)C3OC(C)=O)[nH]nc12 (stereo not drawn)
inactive: [1] 100 % of control | [2] 97 % of control | [3] 100 % of control

CC(O)c1cccnc1 (stereo not drawn)
inactive: dose: 10.0 mg/kg/injection, schedule: Q01DX009 (ip), vehicle: saline 99 % of control | dose: 10.0 mg/kg/injection, schedule: Q04DX003 (ip), vehicle: saline 97 % of control | dose: 20.0 mg/kg/injection, schedule: Q01DX009 (ip), vehicle: saline 99 % of control | dose: 20.0 mg/kg/injection, schedule: Q04DX003 (ip), vehicle: saline 105 % of control | dose: 40.0 mg/kg/injection, schedule: Q01DX009 (ip), vehicle: saline 97 % of control | dose: 40.0 mg/kg/injection, schedule: Q04DX003 (ip), vehicle: saline 100 % of control

CC1=NNC(=O)C1
inactive: dose: 50.0 mg/kg/injection, schedule: Q01DX009 (ip), vehicle: carboxymethylcellulose (CMC) 100 % of control | [14] 114 % of control | [7] 89 % of control | dose: 100.0 mg/kg/injection, schedule: Q04DX003 (ip), vehicle: saline with Tween-80 112 % of control | [16] 114 % of control | [8] 98 % of control | dose: 200.0 mg/kg/injection, schedule: Q04DX003 (ip), vehicle: saline with Tween-80 105 % of control | [9] 96 % of control | dose: 400.0 mg/kg/injection, schedule: Q04DX003 (ip), vehicle: saline with Tween-80 112 % of control
